# Key:
# Format in all cases: functional
# Staphylococcus aureus [1] = assay: Antibacterial activity against methicillin susceptible Staphylococcus aureus ATCC 29213 (MSSA )
# Enterococcus faecium = assay: Antibacterial activity against Enterococcus faecium ATCC 6569
# Staphylococcus aureus [2] = assay: Antibacterial activity against methicillin resistant Staphylococcus aureus ATCC 43300 (MRSA)
# Enterococcus faecalis = assay: Antibacterial activity against Enterococcus faecalis ATCC 49452
# Mus musculus = assay: Antibacterial activity was determined by protection from death of mice infected by methicillin resistant Staphylococcus aureus (MRSA) upon sc administration of compound after 4 hr of post infection; settings: read-out: PD50
SMILES,MIC (Staphylococcus aureus [1]) [µg/mL],MIC (Enterococcus faecium) [µg/mL],MIC (Staphylococcus aureus [2]) [µg/mL],MIC (Enterococcus faecalis) [µg/mL],ED50 (Mus musculus) [mg/kg]
CCCCCCCCCC(=O)N[C@@H](Cc1c[nH]c2ccccc12)C(=O)N[C@H](CC(N)=O)C(=O)N[C@@H](CC(=O)O)C(=O)N[C@@H]1C(=O)NCC(=O)N[C@@H](CCCNC(=O)C(C)CC(=O)c2ccccc2N)C(=O)N[C@@H](CC(=O)O)C(=O)N[C@H](C)C(=O)N[C@@H](CC(=O)O)C(=O)NCC(=O)N[C@H](CO)C(=O)N[C@@H]([C@H](C)CC(=O)O)C(=O)N[C@@H](CC(=O)c2ccccc2N)C(=O)O[C@@H]1C (some centres undefined),1.56,6.25,1.56,12.5,–
CCCCCCCCCC(=O)N[C@@H](Cc1c[nH]c2ccccc12)C(=O)N[C@H](CC(N)=O)C(=O)N[C@@H](CC(=O)O)C(=O)N[C@@H]1C(=O)NCC(=O)N[C@@H](CCCNC(=O)CCc2c[nH]c3ccccc23)C(=O)N[C@@H](CC(=O)O)C(=O)N[C@H](C)C(=O)N[C@@H](CC(=O)O)C(=O)NCC(=O)N[C@H](CO)C(=O)N[C@@H]([C@H](C)CC(=O)O)C(=O)N[C@@H](CC(=O)c2ccccc2N)C(=O)O[C@@H]1C,1.56,12.5,1.56,25,–
CCCCCCCCCC(=O)N[C@@H](Cc1c[nH]c2ccccc12)C(=O)N[C@@H](CC(N)=O)C(=O)N[C@@H](CC(=O)O)C(=O)N[C@@H]1C(=O)NCC(=O)N[C@@H](CCCNC(=O)C(N)Cc2c[nH]c3ccccc23)C(=O)N[C@@H](CC(=O)O)C(=O)N[C@H](C)C(=O)N[C@@H](CC(=O)O)C(=O)NCC(=O)N[C@H](CO)C(=O)N[C@@H]([C@H](C)CC(=O)O)C(=O)N[C@@H](CC(=O)c2ccccc2N)C(=O)O[C@@H]1C (some centres undefined),1.56,6.25,1.56,12.5,–
CCCCCCCCCC(=O)N[C@@H](Cc1c[nH]c2ccccc12)C(=O)N[C@@H](CC(N)=O)C(=O)N[C@@H](CC(=O)O)C(=O)N[C@@H]1C(=O)NCC(=O)N[C@@H](CCCNC(=O)C(N)Cc2c[nH]c3ccc(OC)cc23)C(=O)N[C@@H](CC(=O)O)C(=O)N[C@H](C)C(=O)N[C@@H](CC(=O)O)C(=O)NCC(=O)N[C@H](CO)C(=O)N[C@@H]([C@H](C)CC(=O)O)C(=O)N[C@@H](CC(=O)c2ccccc2N)C(=O)O[C@@H]1C (some centres undefined),1.56,12.5,1.56,25,–
CCCCCCCCCC(=O)N[C@@H](Cc1c[nH]c2ccccc12)C(=O)N[C@H](CC(N)=O)C(=O)N[C@@H](CCO)C(=O)N[C@@H]1C(=O)NCC(=O)N[C@@H](CCCNC(=O)C(N)Cc2c[nH]c3ccc(F)cc23)C(=O)N[C@@H](CC(=O)O)C(=O)N[C@H](C)C(=O)N[C@@H](CC(=O)O)C(=O)NCC(=O)N[C@H](CO)C(=O)N[C@@H]([C@H](C)CC(=O)O)C(=O)N[C@@H](CC(=O)c2ccccc2N)C(=O)O[C@@H]1C (some centres undefined),1.56,3.1,1.56,1.56,–
CCCCCCCCCC(=O)N[C@@H](Cc1c[nH]c2ccccc12)C(=O)N[C@H](CC(N)=O)C(=O)N[C@@H](CC(=O)O)C(=O)N[C@@H]1C(=O)NCC(=O)N[C@@H](CCCNC(=O)CC(C)(C)C(=O)O)C(=O)N[C@@H](CC(=O)O)C(=O)N[C@H](C)C(=O)N[C@@H](CC(=O)O)C(=O)NCC(=O)N[C@H](CO)C(=O)N[C@@H]([C@H](C)CC(=O)O)C(=O)N[C@@H](CC(=O)c2ccccc2N)C(=O)O[C@@H]1C,12.5,50,12.5,50,–
CCCCCCCCCC(=O)N[C@@H](Cc1c[nH]c2ccccc12)C(=O)N[C@H](CC(N)=O)C(=O)N[C@@H](CC(=O)O)C(=O)N[C@@H]1C(=O)NCC(=O)N[C@@H](CCCNC(=O)c2cccc(OC)c2N)C(=O)N[C@@H](CC(=O)O)C(=O)N[C@H](C)C(=O)N[C@@H](CC(=O)O)C(=O)NCC(=O)N[C@H](CO)C(=O)N[C@@H]([C@H](C)CC(=O)O)C(=O)N[C@@H](CC(=O)c2ccccc2N)C(=O)O[C@@H]1C,0.63,10,–,10,–
CCCCCCCCCC(=O)N[C@@H](Cc1c[nH]c2ccccc12)C(=O)N[C@H](CC(N)=O)C(=O)N[C@@H](CC(=O)O)C(=O)N[C@@H]1C(=O)NCC(=O)N[C@@H](CCCNC(=O)c2cccc(C)c2N)C(=O)N[C@@H](CC(=O)O)C(=O)N[C@H](C)C(=O)N[C@@H](CC(=O)O)C(=O)NCC(=O)N[C@H](CO)C(=O)N[C@@H]([C@H](C)CC(=O)O)C(=O)N[C@@H](CC(=O)c2ccccc2N)C(=O)O[C@@H]1C,0.63,10,–,10,–
CCCCCCCCCC(=O)N[C@@H](Cc1c[nH]c2ccccc12)C(=O)N[C@H](CC(N)=O)C(=O)N[C@@H](CC(=O)O)C(=O)N[C@@H]1C(=O)NCC(=O)N[C@@H](CCCNC(=O)c2cc(C(=O)O)ccc2N)C(=O)N[C@@H](CC(=O)O)C(=O)N[C@H](C)C(=O)N[C@@H](CC(=O)O)C(=O)NCC(=O)N[C@H](CO)C(=O)N[C@@H]([C@H](C)CC(=O)O)C(=O)N[C@@H](CC(=O)c2ccccc2N)C(=O)O[C@@H]1C,1.25,10,3.1,12.5,–
CCCCCCCCCC(=O)N[C@@H](Cc1c[nH]c2ccccc12)C(=O)N[C@H](CC(N)=O)C(=O)N[C@@H](CC(=O)O)C(=O)N[C@@H]1C(=O)NCC(=O)N[C@@H](CCCNC(=O)c2ccccc2I)C(=O)N[C@@H](CC(=O)O)C(=O)N[C@H](C)C(=O)N[C@@H](CC(=O)O)C(=O)NCC(=O)N[C@H](CO)C(=O)N[C@@H]([C@H](C)CC(=O)O)C(=O)N[C@@H](CC(=O)c2ccccc2N)C(=O)O[C@@H]1C,1.56,3.1,1.56,12.5,–
CCCCCCCCCC(=O)N[C@@H](Cc1c[nH]c2ccccc12)C(=O)N[C@H](CC(N)=O)C(=O)N[C@@H](CC(=O)O)C(=O)N[C@@H]1C(=O)NCC(=O)N[C@@H](CCCNC(=O)c2ccccc2SC)C(=O)N[C@@H](CC(=O)O)C(=O)N[C@H](C)C(=O)N[C@@H](CC(=O)O)C(=O)NCC(=O)N[C@H](CO)C(=O)N[C@@H]([C@H](C)CC(=O)O)C(=O)N[C@@H](CC(=O)c2ccccc2N)C(=O)O[C@@H]1C,3.1,6.25,1.56,25,–
CCCCCCCCCC(=O)N[C@@H](Cc1c[nH]c2ccccc12)C(=O)N[C@H](CC(N)=O)C(=O)N[C@@H](CC(=O)O)C(=O)N[C@@H]1C(=O)NCC(=O)N[C@@H](CCCNC(=O)c2ccccc2OC)C(=O)N[C@@H](CC(=O)O)C(=O)N[C@H](C)C(=O)N[C@@H](CC(=O)O)C(=O)NCC(=O)N[C@H](CO)C(=O)N[C@@H]([C@H](C)CC(=O)O)C(=O)N[C@@H](CC(=O)c2ccccc2N)C(=O)O[C@@H]1C,1.25,6.25,3.1,25,–
CCCCCCCCCC(=O)N[C@@H](Cc1c[nH]c2ccccc12)C(=O)N[C@H](CC(N)=O)C(=O)N[C@@H](CC(=O)O)C(=O)N[C@@H]1C(=O)NCC(=O)N[C@@H](CCCNC(=O)c2cc(O)ccc2N)C(=O)N[C@@H](CC(=O)O)C(=O)N[C@H](C)C(=O)N[C@@H](CC(=O)O)C(=O)NCC(=O)N[C@H](CO)C(=O)N[C@@H]([C@H](C)CC(=O)O)C(=O)N[C@@H](CC(=O)c2ccccc2N)C(=O)O[C@@H]1C,1.25,10,–,10,–
CCCCCCCCCC(=O)N[C@@H](Cc1c[nH]c2ccccc12)C(=O)N[C@H](CC(N)=O)C(=O)N[C@@H](CC(=O)O)C(=O)N[C@@H]1C(=O)NCC(=O)N[C@@H](CCCNC(=O)c2cc(OC)ccc2N)C(=O)N[C@@H](CC(=O)O)C(=O)N[C@H](C)C(=O)N[C@@H](CC(=O)O)C(=O)NCC(=O)N[C@H](CO)C(=O)N[C@@H]([C@H](C)CC(=O)O)C(=O)N[C@@H](CC(=O)c2ccccc2N)C(=O)O[C@@H]1C,2.5,10,–,10,–
CCCCCCCCCC(=O)N[C@@H](Cc1c[nH]c2ccccc12)C(=O)N[C@H](CC(N)=O)C(=O)N[C@@H](CC(=O)O)C(=O)N[C@@H]1C(=O)NCC(=O)N[C@@H](CCCNC(=O)[C@@H](N)CCCCN)C(=O)N[C@@H](CC(=O)O)C(=O)N[C@H](C)C(=O)N[C@@H](CC(=O)O)C(=O)NCC(=O)N[C@H](CO)C(=O)N[C@@H]([C@H](C)CC(=O)O)C(=O)N[C@@H](CC(=O)c2ccccc2N)C(=O)O[C@@H]1C,1.56,–,0.78,6.25,1.1
CCCCCCCCCC(=O)N[C@@H](Cc1c[nH]c2ccccc12)C(=O)N[C@H](CC(N)=O)C(=O)N[C@@H](CCO)C(=O)N[C@@H]1C(=O)NCC(=O)N[C@@H](CCCNC(=O)c2c(N)cccc2F)C(=O)N[C@@H](CC(=O)O)C(=O)N[C@H](C)C(=O)N[C@@H](CC(=O)O)C(=O)NCC(=O)N[C@H](CO)C(=O)N[C@@H]([C@H](C)CC(=O)O)C(=O)N[C@@H](CC(=O)c2ccccc2N)C(=O)O[C@@H]1C,0.78,3.1,0.78,3.1,–
CCCCCCCCCC(=O)N[C@@H](Cc1c[nH]c2ccccc12)C(=O)N[C@H](CC(N)=O)C(=O)N[C@@H](CC(=O)O)C(=O)N[C@@H]1C(=O)NCC(=O)N[C@@H](CCCNC(=O)C2Cc3c([nH]c4ccccc34)CN2)C(=O)N[C@@H](CC(=O)O)C(=O)N[C@H](C)C(=O)N[C@@H](CC(=O)O)C(=O)NCC(=O)N[C@H](CO)C(=O)N[C@@H]([C@H](C)CC(=O)O)C(=O)N[C@@H](CC(=O)c2ccccc2N)C(=O)O[C@@H]1C (some centres undefined),0.78,3.1,0.78,12.5,1.75
CCCCCCCCCC(=O)N[C@@H](Cc1c[nH]c2ccccc12)C(=O)N[C@H](CC(N)=O)C(=O)N[C@@H](CCO)C(=O)N[C@@H]1C(=O)NCC(=O)N[C@@H](CCCNC(=O)c2ccccc2)C(=O)N[C@@H](CC(=O)O)C(=O)N[C@H](C)C(=O)N[C@@H](CC(=O)O)C(=O)NCC(=O)N[C@H](CO)C(=O)N[C@@H]([C@H](C)CC(=O)O)C(=O)N[C@@H](CC(=O)c2ccccc2N)C(=O)O[C@@H]1C,6.25,25,12.5,25,–
CCCCCCCCCC(=O)N[C@@H](Cc1c[nH]c2ccccc12)C(=O)N[C@H](CC(N)=O)C(=O)N[C@@H](CC(=O)O)C(=O)N[C@@H]1C(=O)NCC(=O)N[C@@H](CCCNC(=O)C(N)CCc2c[nH]c3ccccc23)C(=O)N[C@@H](CC(=O)O)C(=O)N[C@H](C)C(=O)N[C@@H](CC(=O)O)C(=O)NCC(=O)N[C@H](CO)C(=O)N[C@@H]([C@H](C)CC(=O)O)C(=O)N[C@@H](CC(=O)c2ccccc2N)C(=O)O[C@@H]1C (some centres undefined),0.78,1.56,0.78,3.1,0.15

# Reference: ChEMBL document CHEMBL1136454, “Synthesis and biological activity of N-Acylated ornithine analogues of daptomycin” (Bioorg Med Chem Lett, 2003)
